# Legend:
# growth plate cartilage = assay: Histology and immunohistochemistry of growth plate cartilage of cultured femur explants; parameters: species or system mice
# Protocol: In order to appreciate the impact of the treatment on the growth plate cartilage, we performed histological and immunohistological studies. We selected specific markers of the cartilage, SOX9 and Collagen type X, we tested the expression of the protein FGFR3 and we also evaluated the expression of the phosphorylated Erk1/2 proteins of the […] signalling and activated by FGFR3. Limb explants were fixed after culture in 4% paraformaldehyde at 4° C. and embedded in paraffin. Serial 5 μm sections were stained with Hematoxylin-Eosin using standard protocols for histological analysis or were subjected to immunohistochemical staining. For immunohistochemistry, sections were stained with antibodies specific to FGFR3 (1:100 dilution; Sigma), anti-Collagen type X (1:50 dilution; Quartett) anti-SOX9 (1:1000 dilution; Abcam), anti-phosphorylated Erk1/2 (1:100 dilution; Cell signaling) using the Dako Envision system kit. Images were captured with an Olympus PD70-IX2-UCB microscope.
# [1] = tested on: Fgfr3^Y367C/+ chondrocytes; assay: Primary cilium length in antenatal E16.5 Fgfr3Y367C/+ chondrocytes (immunocytochemistry); assay type: cell-based, mice
# Protocol: Cultured chondrocytes issued from Fgfr3^Y367C/+ were fixed at room temperature for 10 min in methanol (chilled at −20° C.), and then washed with PBS. Samples were permeabilized for 10 min with PBS containing 0.1% Triton-X100 (Sigma-Aldrich), then washed three times for 5 min. Samples were incubated with PBS containing 10% goat serum (Biowest) for 60 min at room temperature. Primary antibodies were incubated at 4° C. overnight. The following primary antibodies were used: mouse IgG1 anti-γ-tubulin (Sigma-Aldrich #T6557, 1:1000) and rabbit anti-Ar113b (Proteintech #177111-AP, 1:500). Cells were washed with PBS, and then incubated with goat anti-mouse IgG1 coupled with AlexaFluor 488 (Life Technologies, 1:1000) and goat anti-rabbit coupled with AlexaFluor 647 (Life Technologies, 1:1000) secondary antibodies for 2h at room temperature in the dark. Samples were extensively washed and mounted with a solution of DAPI-Fluoromount G (SouthernBiotech) containing DAPI (4′,6′-diamidino-2-phenylindole) for nuclear staining. Image acquisition were captured using a Spinning disk confocal microscope. […] In order to compare measured data, all confocal experiments showing PC length was acquired in same conditions using slice thickness of 0.20 μm and a pixel size of 60 nm. […] We next measured in 2D the PC lengths by IMARIS software (Bitplane).
# Fgfr3^+/+ femurs = assay: Ex vivo femur cultures isolated from Fgfr3+/+ mice
# Protocol: (§1) Several sets of ex vivo experiments were performed as previously described (Jonquoy et al., Hum Mol Genet, 21: 841-851, 2012). Femur embryos at day E16.5 from Fgfr3^+/+ (n=23) and Fgfr3^Y367C/+ (n=16) mice were used and incubated for 6 days in DMEM medium with antibiotics and 0.2% BSA (Sigma) supplemented with cocoa F5 or (−)-epicatechin (Sigma-0394-05-90) or DMSO (as control) at a concentration of 10 and 30 μg/ml. To establish the effect of the inhibitors, the left femur was cultured in supplemented medium and compared with the right one cultured in control medium. The bone length was measured at the beginning (before treatment) and at the end of time course. The genotype of Fgfr3^+/+ and Fgfr3^Y367C/+ mice were determined by PCR of tail DNA as previously described (Pannier et al., Biochim Biophys Acta, 1792: 140-147, 2009). All experimental procedures and protocols were approved by the Animal Care and Use Committee.
# Fgfr3^Y367C/+ femurs = assay: Ex vivo femur cultures isolated from Fgfr3Y367C/+ mice
# Protocol: as §1
# [2] = proximal and distal femurs, immunohistochemistry
structure (smiles),measurement,setting,value
"Oc1cc(O)c2c(c1)O[C@H](c1ccc(O)c(O)c1)[C@H](O)C2 [(−)-epicatechin, (2R,3R)-2-(3,4-dihydroxyphenyl)-3,4-dihydro-2H-chromene-3,5,7-triol]","reserve, proliferative and pre-hypertrophic zones of the growth plate cartilage",growth plate cartilage; H&E staining,increased
same,whole growth plate cartilage,growth plate cartilage; H&E staining,improved
same,epiphysis size,"growth plate cartilage; proximal and distal femur, histology",increase size
same,FGFR3 expression,growth plate cartilage; [2],strongly decreased
same,SOX9 expression,growth plate cartilage; [2],strongly decreased
same,collagen type X expression,growth plate cartilage; [2],not modified
same,phosphorylated Erk1/2 expression,growth plate cartilage; [2],slightly decreased
same,effect on primary cilium,[1]; Fgfr3Y367C/+ chondrocytes,elongation
same,primary cilium average length (A),"[1]; Fgfr3Y367C/+ chondrocytes treated with (−)-epicatechin, n=113, N=3, mean+S.E.M., untreated 2.10+0.06, in µm",2.45+0.09
same,"size of the femurs, Fgfr3+/+",Fgfr3^+/+ femurs; 1 μg/ml (FIG. 13),did not improve
same,growth of the Fgfr3+/+ femurs,"Fgfr3^+/+ femurs; 10 μg/ml, 6 days culture",did not impair
same,"size of the femurs, Fgfr3Y367C/+",Fgfr3^Y367C/+ femurs; 1 μg/ml (FIG. 13),did not improve
same,percentage of femur growth in Fgfr3Y367C/+ mice versus Fgfr3+/+ mice,"Fgfr3^Y367C/+ femurs; 10 μg/ml, 6 days culture",more important
same,increase of length of the Fgfr3Y367C/+ femurs comparing to Fgfr3+/+ femurs,"Fgfr3^Y367C/+ femurs; 10 μg/ml, E16.5 femurs, 6 days culture",+10%

# From patent publication US20210052546A1, “METHODS AND PHARMACEUTICAL COMPOSITIONS FOR THE TREATMENT OF FGFR3-RELATED CHONDRODYSPLASIAS” (INSERM (INSTITUT NATIONAL DE LA SANTÉ ET DE LA RECHERCHE …, priority 2018, published 2021)
